Data as given in BindingDB's records for doi:10.3109/14756366.2012.740477 (Solapur University, 2013).

Target: Urease (Canavalia ensiformis, UniProt P07374)
Assay: Urease Inhibition Assay
Conditions: pH 6.8; 30 °C
Description: Mixture of 25 μL of urease enzyme (Jack bean) solution containing 1 unit of enzyme (1 unit = 0.02 mg of enzyme) was dissolved in phosphate buffer of pH 6.8, 55 μL of buffer containing 100 mM urea, and 5 μL of test compounds (0.5 mM concentration) was incubated at 30°C for 15 min in 96-well plates. Urease activity was determined by measuring ammonia production using the iodophenol method38. Briefly, 45 μL each of phenol reagent and 70 μL of alkali reagent were added to each well. The increase in absorbance at 630 nm was measured after 50 min, using a microplate reader (Molecular Device, CA, USA). All reactions were performed in triplicate in a final volume of 200 μL. The results (change in absorbance per min) were processed using Soft-Max Pro software (Molecular Device, CA, USA).

Sequence of Urease (P07374 whole entry): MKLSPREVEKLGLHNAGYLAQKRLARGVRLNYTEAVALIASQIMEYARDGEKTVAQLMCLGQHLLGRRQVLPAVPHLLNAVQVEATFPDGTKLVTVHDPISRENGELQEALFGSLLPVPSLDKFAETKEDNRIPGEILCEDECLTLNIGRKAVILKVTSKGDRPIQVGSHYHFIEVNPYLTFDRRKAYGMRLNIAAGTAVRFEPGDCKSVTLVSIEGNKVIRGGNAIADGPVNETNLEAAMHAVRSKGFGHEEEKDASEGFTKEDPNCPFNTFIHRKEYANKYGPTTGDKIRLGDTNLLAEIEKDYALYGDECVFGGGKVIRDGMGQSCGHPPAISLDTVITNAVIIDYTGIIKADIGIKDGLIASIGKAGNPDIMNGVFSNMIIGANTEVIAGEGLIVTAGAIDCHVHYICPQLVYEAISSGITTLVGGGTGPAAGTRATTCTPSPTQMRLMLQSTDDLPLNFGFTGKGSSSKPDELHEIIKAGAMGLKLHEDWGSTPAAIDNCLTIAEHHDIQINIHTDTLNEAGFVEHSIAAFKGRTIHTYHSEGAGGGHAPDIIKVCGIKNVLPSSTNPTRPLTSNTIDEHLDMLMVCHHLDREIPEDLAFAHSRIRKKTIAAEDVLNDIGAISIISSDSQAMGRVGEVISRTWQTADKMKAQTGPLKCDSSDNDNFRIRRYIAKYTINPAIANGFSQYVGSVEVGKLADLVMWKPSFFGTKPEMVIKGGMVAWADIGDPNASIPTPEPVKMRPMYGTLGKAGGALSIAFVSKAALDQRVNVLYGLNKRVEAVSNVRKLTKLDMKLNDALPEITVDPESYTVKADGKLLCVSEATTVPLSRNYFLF

SMILES | IC50 [µM]
Cn1c2ccccc2c2cc(-c3cc(-c4cc(Cl)ccc4Cl)nc(N)n3)ccc21 [4-(2,5-Dichlorophenyl)-6-(9-methyl-9H-carbazol-3-yl)-pyrimidin-2-amine (5k)] | 28.1
COc1ccc(-c2cc(-c3ccc4c(c3)c3ccccc3n4C)nc(N)n2)cc1OC [4-(3,4-Dimethoxyphenyl)-6-(9-methyl-9H-carbazol-3-yl)-pyrimidin-2-amine (5c)] | 30.7
Cn1c2ccccc2c2cc(-c3cc(-c4ccc([N+](=O)[O-])cc4)nc(N)n3)ccc21 [4-(9-Methyl-9H-carbazol-3-yl)-6-(4-nitrophenyl)-pyrimidin-2-amine (5m)] | 87.2
Cn1c2ccccc2c2cc(-c3cc(-c4ccc(F)cc4F)nc(N)n3)ccc21 [4-(2,4-Difluorophenyl)-6-(9-methyl-9H-carbazol-3-yl)-pyrimidin-2-amine (5f)] | 40.2
Cn1c2ccccc2c2cc(-c3cc(-c4cccs4)nc(N)n3)ccc21 [4-(9-Methyl-9H-carbazol-3-yl)-6-(thiophen-2-yl)-pyrimidin-2-amine (5n)] | > 100
Cn1c2ccccc2c2cc(-c3cc(-c4ccc(Cl)cc4)nc(N)n3)ccc21 [4-(4-Chlorophenyl)-6-(9-methyl-9H-carbazol-3-yl)-pyrimidin-2-amine (5h)] | > 100
Cn1c2ccccc2c2cc(-c3cc(-c4ccc(Cl)cc4Cl)nc(N)n3)ccc21 [4-(2,4-Dichlorophenyl)-6-(9-methyl-9H-carbazol-3-yl)-pyrimidin-2-amine (5i)] | 19.4
Cn1c2ccccc2c2cc(-c3cc(-c4ccccc4)nc(N)n3)ccc21 [4-(9-Methyl-9H-carbazol-3-yl)-6-phenylpyrimidin-2-amine (5a)] | > 100
Cn1c2ccccc2c2cc(-c3cc(-c4ccc(Cl)c(Cl)c4)nc(N)n3)ccc21 [4-(3,4-Dichlorophenyl)-6-(9-methyl-9H-carbazol-3-yl)-pyrimidin-2-amine (5j)] | 23.2
COc1ccc(-c2cc(-c3ccc4c(c3)c3ccccc3n4C)nc(N)n2)cc1 [4-(4-Methoxyphenyl)-6-(9-methyl-9H-carbazol-3-yl)-pyrimidin-2-amine (5b)] | 95.4
Cn1c2ccccc2c2cc(-c3cc(-c4cccc(N)c4)nc(N)n3)ccc21 [4-(3-Aminophenyl)-6-(9-methyl-9H-carbazol-3-yl)-pyrimidin-2-amine (5p)] | 83.7
Cn1c2ccccc2c2cc(-c3cc(-c4ccc(F)cc4)nc(N)n3)ccc21 [4-(4-Fluorophenyl)-6-(9-methyl-9H-carbazol-3-yl)-pyrimidin-2-amine (5e)] | > 100
Cn1c2ccccc2c2cc(-c3cc(-c4ccccn4)nc(N)n3)ccc21 [4-(9-Methyl-9H-carbazol-3-yl)-6-(pyridin-2-yl)-pyrimidin-2-amine (5o)] | > 100
Cn1c2ccccc2c2cc(-c3cc(-c4ccc(Br)cc4)nc(N)n3)ccc21 [4-(4-Bromophenyl)-6-(9-methyl-9H-carbazol-3-yl)-pyrimidin-2-amine (5l)] | 95.1
Cn1c2ccccc2c2cc(-c3cc(-c4ccc(F)c(F)c4)nc(N)n3)ccc21 [4-(3,4-Difluorophenyl)-6-(9-methyl-9H-carbazol-3-yl)-pyrimidin-2-amine (5g)] | 45.2
COc1cc(OC)c(-c2cc(-c3ccc4c(c3)c3ccccc3n4C)nc(N)n2)c(OC)c1 [4-(9-Methyl-9H-carbazol-3-yl)-6-(2,4,6-trimethoxyphenyl)-pyrimidin-2-amine (5d)] | 73.7
